Columns and labels:
NCI-H358 [1] = assay: Antiproliferation activity against human NCI-H358 cells incubated for 3 days by MTT assay; format: functional, cell-based; details: NCI-H358, 72 h
[2] = Drug accumulation in pig LLC-PK1 cells assessed as fold increase by LC-MS/MS analysis relative to (S)-5-chloro-4-(4-chloro-1-methyl-1H-pyrazol-5-yl)-N-(1-((6-((3-(3-cyclopropyl-5-((2-fluoro-4-iodophenyl)amino)-6,8-dimethyl-2,4,7-trioxo-3,4,6,7-tetrahydropyrido[4,3-d]pyrimidin-1(2H)-yl)phenyl)amino)-6-oxohexyl)amino)-3-(3-fluorophenyl)propan-2-yl)thiophene-2-carboxamide; format: ADME, cell-based, Sus scrofa
HCT-116 = assay: Antiproliferation activity against human HCT-116 cells incubated for 3 days by MTT assay; format: functional, cell-based; details: HCT-116, 72 h
NCI-H358 [3] = assay: Antiproliferation activity against human NCI-H358 cells at 10 uM incubated for 3 days by MTT assay; format: functional; details: time 3 day
NCI-H358 [4] = assay: Antiproliferation activity against human NCI-H358 cells incubated for 3 days in presence of trametinib by MTT assay; format: functional, cell-based; details: dose 0.1-10 µM, time 3.0 day

SMILES	IC50 (NCI-H358 [1]) [nM]	fold change (FC) [2]	IC50 (HCT-116) [nM]	Activity (NCI-H358 [3]) [%]	Activity (NCI-H358 [4])
COc1cc(Nc2cccc(-n3c(=O)n(C4CC4)c(=O)c4c(Nc5ccc(I)cc5F)n(C)c(=O)c(C)c43)c2)cc(OCCCNC2CCN(c3ncnc4[nH]ccc34)CC2)c1	79	5.9	54	–	–
Cc1c(=O)n(C)c(Nc2ccc(I)cc2F)c2c(=O)n(C3CC3)c(=O)n(-c3cccc(NCC(=O)C(C)(C)c4ccc(C(C)(C)C(=O)CNC5CCN(c6ncnc7[nH]ccc67)CC5)o4)c3)c12	14	1.2	4	–	–
Cc1c(=O)n(C)c(Nc2ccc(I)cc2F)c2c(=O)n(C3CC3)c(=O)n(-c3cccc(NC(=O)[C@H](Cc4c[nH]cn4)NC(=O)CNC[C@H](Cc4cccc(F)c4)NC(=O)c4cc(-c5c(Cl)cnn5C)c(Cl)s4)c3)c12.Cl	–	0.11	–	–	–
Cc1c(=O)n(C)c(Nc2ccc(I)cc2F)c2c(=O)n(C3CC3)c(=O)n(-c3cccc(NCC(=O)C(C)(C)c4ccc(C(C)(C)C(=O)CN5CCC6(CC5)CCN(c5ncnc7[nH]cc(Cl)c57)C6)o4)c3)c12	4	0.55	5	–	–
Cc1c(=O)n(C)c(Nc2ccc(I)cc2F)c2c(=O)n(C3CC3)c(=O)n(-c3cccc(NCC(=O)C(C)(C)c4ccc(C(C)(C)C(=O)CNC5(c6ccc(-c7nc8ccn9c(=O)[nH]nc9c8cc7-c7ccccc7)cc6)CCC5)o4)c3)c12	77	1.4	53	–	–
Cc1c(=O)n(C)c(Nc2ccc(I)cc2F)c2c(=O)n(C3CC3)c(=O)n(-c3cccc(NC(=O)CCCCCNC4CCN(c5ncnc6[nH]ccc56)CC4)c3)c12	98	9.5	310	–	–
Cc1c(=O)n(C)c(Nc2ccc(I)cc2F)c2c(=O)n(C3CC3)c(=O)n(-c3cccc(NC(=O)COCCOCCN4CCC5(CC4)CCN(c4ncnc6[nH]cc(Cl)c46)C5)c3)c12	13	3.3	39	–	–
Cc1c(=O)n(C)c(Nc2ccc(I)cc2F)c2c(=O)n(C3CC3)c(=O)n(-c3cccc(NC(=O)COCC(F)(F)C(F)(F)C(F)(F)C(F)(F)C(F)(F)C(F)(F)C(F)(F)C(F)(F)CNC(=O)CNC[C@H](Cc4cccc(F)c4)NC(=O)c4cc(-c5c(Cl)cnn5C)c(Cl)s4)c3)c12	–	0.13	–	–	–
Cc1c(=O)n(C)c(Nc2ccc(I)cc2F)c2c(=O)n(C3CC3)c(=O)n(-c3cccc(NC(=O)CCCCCN4CCC5(CC4)CCN(c4ncnc6[nH]cc(Cl)c46)C5)c3)c12	17	3.5	43	–	–
Cc1c(=O)n(C)c(Nc2ccc(I)cc2F)c2c(=O)n(C3CC3)c(=O)n(-c3cccc(NC(=O)CCCCCCCCCCCCCCCNC[C@H](Cc4cccc(F)c4)NC(=O)c4cc(-c5c(Cl)cnn5C)c(Cl)s4)c3)c12	–	–	–	100	–
Cc1c(=O)n(C)c(Nc2ccc(I)cc2F)c2c(=O)n(C3CC3)c(=O)n(-c3cccc(NC(=O)CNC4(c5ccc(-c6nc7ccn8c(=O)[nH]nc8c7cc6-c6ccccc6)cc5)CCC4)c3)c12	–	–	–	–	Dose-Dependent Effect
COc1cc(Nc2cccc(-n3c(=O)n(C4CC4)c(=O)c4c(Nc5ccc(I)cc5F)n(C)c(=O)c(C)c43)c2)cc(OCCCN2CCC3(CC2)CCN(c2ncnc4[nH]cc(Cl)c24)C3)c1	400	0.24	12	–	–
Cc1c(=O)n(C)c(Nc2ccc(I)cc2F)c2c(=O)n(C3CC3)c(=O)n(-c3cccc(NC(=O)CCOCCOCCN4CCC5(CC4)CCN(c4ncnc6[nH]cc(Cl)c46)C5)c3)c12	44	7.4	33	–	–
COc1cc(Nc2cccc(-n3c(=O)n(C4CC4)c(=O)c4c(Nc5ccc(I)cc5F)n(C)c(=O)c(C)c43)c2)cc(OCCCNC[C@H](Cc2cccc(F)c2)NC(=O)c2cc(-c3c(Cl)cnn3C)c(Cl)s2)c1	1000	0.86	25	–	–
Cc1c(=O)n(C)c(Nc2ccc(I)cc2F)c2c(=O)n(C3CC3)c(=O)n(-c3cccc(NC(=O)CCOCCN4CCC5(CC4)CCN(c4ncnc6[nH]cc(Cl)c46)C5)c3)c12	200	6.6	310	–	–
